How the values were obtained:
[1] = tested on: rat soleus muscles; test: Tubocurarine concentration required to depress nerve-stimulated force by 50% (Kd,tub), combination with neostigmine or pyridostigmine (Table 4); conditions: pre-incubation with 50 μM C8, 10 nM neostigmine or both
Procedure: Muscles from 4-week-old rats were stimulated to contract by activating the motor nerve with short duration pulses in field stimulation. Muscles contracted every 10 min for 2 s in response to 30 Hz stimulation. Four different experimental conditions were used. […] After this pre-incubation, increasing concentrations of tubocurarine were added to the bath solutions with 60 min (corresponding to six contractions) between each increase in tubocurarine. […] FIG. 5C similar to FIG. 5A but this muscle had been pre-incubated with neostigmine. […] The force integral (AUC) was determined at each tubocurarine concentration. Such AUC determinations were plotted against tubocurarine concentration for each muscle.
CIC-1 is a novel target in treatment of neuromuscular complications and it was therefore explored whether this approach for symptomatic treatment could be used in combination with existing symptomatic treatment approaches. […] To quantify the effect of compounds on tubocurarine sensitivity, the force at the different tubocurarine concentrations was determined. In plots of nerve-stimulated force against tubocurarine concentration (FIG. 5E) Kd, tub was determined by fitting four parameter sigmoidal functions to the data and the Kd, tub for the different compounds have been collected in Table 4.

[2] = tested on: rat soleus muscles; test: Recovery of nerve-stimulated force in isolated rat soleus muscles with ACh receptors inhibited by 2 μM rocuronium; conditions: 2 μM rocuronium alone; 8 muscles
Procedure: In a separate series of experiments with 8 isolated rat soleus muscles, ACh receptors were inhibited using 2 μM rocuronium, which is a clinically used neuromuscular blocking agent. Under these conditions the nerve-stimulated force was reduced to 51±5% of force before rocuronium. […] This illustrates the potential of these compounds to be used as reversal agents.

[3] = molecular target: T1, human CIC-1 channels (Homo sapiens, UniProt P35523); test: Automated patch-clamp on human CIC-1 expressed in CHO cells: shift of half activation voltage ΔV1/2; format: cell-based; conditions: compound in intracellular solution vs control cell patches; CHO cells expressing human CIC-1
T1 construct: host or cells: CHO (Chinese hamster ovary) cells constitutively expressing human ClC-1
T1 sequence (P35523 whole entry): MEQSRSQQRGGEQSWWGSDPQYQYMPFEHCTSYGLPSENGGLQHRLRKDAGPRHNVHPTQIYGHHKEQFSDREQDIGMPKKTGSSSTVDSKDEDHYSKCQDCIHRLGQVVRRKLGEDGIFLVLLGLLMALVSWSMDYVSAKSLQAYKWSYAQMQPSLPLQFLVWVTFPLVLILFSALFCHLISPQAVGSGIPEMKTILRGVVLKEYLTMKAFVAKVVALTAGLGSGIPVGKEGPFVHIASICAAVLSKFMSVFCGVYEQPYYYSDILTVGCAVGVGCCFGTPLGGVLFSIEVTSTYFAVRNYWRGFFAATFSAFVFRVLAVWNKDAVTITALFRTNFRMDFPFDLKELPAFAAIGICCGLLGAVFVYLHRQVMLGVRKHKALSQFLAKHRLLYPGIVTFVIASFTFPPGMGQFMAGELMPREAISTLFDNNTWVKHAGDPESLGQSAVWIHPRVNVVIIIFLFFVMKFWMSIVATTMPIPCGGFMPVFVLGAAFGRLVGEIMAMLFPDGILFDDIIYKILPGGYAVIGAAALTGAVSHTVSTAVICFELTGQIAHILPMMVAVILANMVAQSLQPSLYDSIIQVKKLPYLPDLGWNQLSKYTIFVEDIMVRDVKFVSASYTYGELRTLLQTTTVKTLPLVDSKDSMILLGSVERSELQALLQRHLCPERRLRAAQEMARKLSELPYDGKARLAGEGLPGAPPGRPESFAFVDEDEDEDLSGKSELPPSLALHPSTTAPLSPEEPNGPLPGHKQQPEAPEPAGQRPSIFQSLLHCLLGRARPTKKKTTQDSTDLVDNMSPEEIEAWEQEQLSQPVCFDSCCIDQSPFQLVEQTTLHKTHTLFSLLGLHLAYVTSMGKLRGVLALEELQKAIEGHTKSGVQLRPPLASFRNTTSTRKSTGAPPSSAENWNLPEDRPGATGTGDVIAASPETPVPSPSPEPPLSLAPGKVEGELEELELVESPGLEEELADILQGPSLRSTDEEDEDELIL
Procedure: FIGS. 13A-13B: FIG. 13A illustrates the voltage protocol used to evoke currents in whole cell patches of CHO cells expressing human CIC-1 channels.
Experiments were performed using an automated patch clamp system that allowed high throughput testing of whole cell patches together with both intracellular and extracellular addition of compound.
Automated whole cell patch clamp experiments were performed with the Qpatch 16 system (Sophion Bioscience, Ballerup, Denmark) at room temperature. Data acquisition and analysis were performed in the Qassay software (ver. 5.6, Odense).
To evoke CIC-1 currents in whole cell patches, the membrane potential was initially stepped from a holding potential of −30 mV to +60 mV for 100 ms and then to various test voltages (sweeps) ranging from +120 mV to −140 mV in steps of 20 mV for 300 ms. To obtain tail currents, the membrane potential was stepped to −100 mV after each test voltage for 300 ms and then relaxed to −30 mV for 2 sec between sweeps (FIG. 3).
I/V relationships for whole cell instant and steady state current amplitudes were obtained by plotting average current densities at the beginning and at the end of the 300 ms step against the membrane potential (FIG. 4).
In order to determine the relative overall open probability (Po), the instantaneous tail currents were normalized to the maximal tail current obtained following the most positive voltage step and plotted against the test voltage. Plots of normalized tail currents from each whole cell patch were then fitted to a Boltzmann function allowing determination of half activation voltages (V1/2, FIG. 5).
For automated patch clamp experiments extracellular solutions contained: 2 mM CaCl2), 1 mM MgCl2, 10 mM HEPES, 4 mM KCl, 145 mM NaCl, 10 mM Glucose, pH adjusted to 7.4 with NaOH (2 M). Osmolality adjusted to ˜320 using sucrose.
Intracellular solutions contained: 80 mM CsF, 60 mM CsCl, 5/1 mM KOH/EGTA, 10 mM HEPES, 10 mM NaCl, pH adjusted to 7.2 with NaOH (2 M). Osmolality adjusted to ˜320 mOsm using sucrose.
Cells used in patch clamp experiments were Chinese hamster ovary cells (CHO) constitutively expressing human CIC-1 channels. The amino acid sequence encoded by the cDNA used to create this cell line was identical to the translated sequence for GenBank accession number NM_000083.2. Cells were produced by Charles River (Catalogue CT6175, Cleveland OH, USA) in a cryopreserved format. Experiments were performed on the cells directly after thawing (3×10^6 cells used in each experiment).
To evaluate the compound effect on CIC-1, when applied directly to the intracellular side of the cell membrane, the half activation voltage, V1/2, was determined from whole cell patches with compound added to the intracellular solution and then compared to V1/2 determined from control cell patches with only vehicle added to the intracellular solution. Additionally, the effect of extracellular added compound was evaluated by determine V1/2 and steady state current amplitudes before and after exchanging the extracellular solution to contain compound.
The difference in half activation voltage of CIC-1 channels, ΔV1/2, was determined as the difference between the cell patches treated intracellularly with compound and control cells patches and is reported in Table 4 below. A positive shift in ΔV 1/2 is reflecting CIC-1 channel inhibition by the tested compound. P-values of <0.05 is considered significant.

[4] = molecular target: T2, CIC-1 channels (Rattus norvegicus, UniProt P35524); test: Electrophysiological measurement of compound inhibition of CIC-1 (Gm) in rat soleus muscle fibres: EC50 (Table 7)
T2 sequence (P35524 1-994): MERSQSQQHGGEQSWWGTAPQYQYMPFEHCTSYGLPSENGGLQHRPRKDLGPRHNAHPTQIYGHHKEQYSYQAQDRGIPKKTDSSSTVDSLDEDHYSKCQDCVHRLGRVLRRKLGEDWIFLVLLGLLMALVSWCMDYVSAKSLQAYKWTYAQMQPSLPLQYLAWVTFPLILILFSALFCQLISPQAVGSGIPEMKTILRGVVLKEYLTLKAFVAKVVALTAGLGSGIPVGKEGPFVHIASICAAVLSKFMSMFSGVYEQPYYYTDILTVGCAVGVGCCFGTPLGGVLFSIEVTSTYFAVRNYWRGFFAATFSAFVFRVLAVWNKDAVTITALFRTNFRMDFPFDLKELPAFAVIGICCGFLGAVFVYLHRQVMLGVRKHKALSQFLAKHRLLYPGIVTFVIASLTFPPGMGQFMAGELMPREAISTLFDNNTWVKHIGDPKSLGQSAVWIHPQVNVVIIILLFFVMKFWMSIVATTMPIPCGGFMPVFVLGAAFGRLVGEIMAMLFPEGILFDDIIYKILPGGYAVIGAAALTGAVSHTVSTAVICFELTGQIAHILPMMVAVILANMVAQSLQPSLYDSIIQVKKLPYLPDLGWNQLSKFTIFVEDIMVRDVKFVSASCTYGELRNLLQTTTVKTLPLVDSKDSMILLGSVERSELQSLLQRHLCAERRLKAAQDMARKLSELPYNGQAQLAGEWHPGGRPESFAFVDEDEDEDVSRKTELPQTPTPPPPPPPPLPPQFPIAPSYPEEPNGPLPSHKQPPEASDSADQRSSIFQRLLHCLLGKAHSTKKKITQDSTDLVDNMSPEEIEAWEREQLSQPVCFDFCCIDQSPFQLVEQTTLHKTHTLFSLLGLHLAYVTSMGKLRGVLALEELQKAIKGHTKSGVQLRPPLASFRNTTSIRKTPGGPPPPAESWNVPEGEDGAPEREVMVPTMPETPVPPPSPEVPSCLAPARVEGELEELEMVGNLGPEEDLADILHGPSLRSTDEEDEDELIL

[5] = tested on: rat soleus muscles; test: Recovery of force in isolated rat soleus nerve-muscle preparations after 115 nM tubocurarine, 50 μM compound (Table 8); conditions: 40 mins exposure
Procedure: Force traces from a representative muscle stimulated to contract in 1) control condition before addition of neuromuscular blocking agent, 2) the force response to stimulation after 90 minutes incubation with Tubocurarine. […] The traces presented in FIG. 12A (1, 2, 3), correspond to the dotted lines in FIG. 12B, respectively.
Recovery of force is quantified as the percentage of the force prior to tubocurarine that is recovered by the compound.
The current invention relates to compounds that inhibit CIC-1 ion channels and increase muscle excitability and thereby improve muscle function in clinical conditions where muscle activation is failing. Such conditions result in loss of contractile function of skeletal muscle, weakness and excessive fatigue. In this series of experiments the compounds were tested for their ability to restore contractile function of isolated rat muscle when the neuromuscular transmission had been compromised akin to neuromuscular disorders.
Experimentally, soleus muscles from 4-5 wk old rats were isolated with the motor nerve remaining attached. The nerve-muscle preparations were mounted in experimental setups that enabled electrical stimulation of the motor nerve. Stimulation of the motor nerve led to activation of the muscle fibres and ensuing force production that was recorded.
After mounting the nerve-muscle preparation in the experimental setup, the contractile function of the muscle was initially assessed under the control conditions (FIG. 2A). […] The experimental condition mimics the failing neuromuscular transmission in a range of neuromuscular disorders. After addition of tubocurarine the contractile force declined over the next 90 mins to 10-50% of the control force. 50 μM of the test compound was then added and the contractile force recovered despite the continued presence of tubocurarine. To quantify the ability of the compound to restore force the percentage of the initial force that was restored was determined after 40 mins of compound exposure (FIG. 2B) and the point increase is reported in Table 8.

[6] = tested on: female Lewis rats; test: In situ isometric hindlimb force in anaesthetised rats with neuromuscular transmission partially inhibited by Cisatracurium; format: in vivo, rat; conditions: 80 Hz stimulation, Cisatracurium infusion
Procedure: Isometric hindlimb force was measured in 12-week old female Lewis rats in the presence and absence of compound.
Rats were placed under anesthesia with isoflurane (2-4%), intubated and subsequently connected to a micro ventilator (Microvent 1, Hallowell EMC, US). Two stimulation electrodes were inserted through the skin to stimulate the sciatic nerve. A small incision was made proximal to the ankle, to expose the Achilles tendon, which was tied by cotton string, and connected to a force transducer (Fort250, World Precision Instruments) with adjustable position (Vernier control). The Achilles tendon was then cut distal to the attached cotton string. The rat was placed on a heated pad, and to prevent movement artefacts from contraction of the ankle dorsiflexors, the foot was fixated by tape on a footplate.
Muscle contractile properties were assessed by applying an electrical current (under supramaximal voltage conditions) to the nerve and recording the force generated by the muscle. The muscle was stretched until maximal force was obtained, when assessed by 2 Hz stimulation. Isometric force was measured every 30 seconds at 12 Hz (Twitch), 10 pulses, and at every 5 minutes at 80 Hz (Tetanic) for 1 second (80 pulses). This stimulation pattern was employed throughout the experiment, expect in few cases where 80 Hz stimulation was replaced by 12 Hz (10 pulses). […] When the level of neuromuscular inhibition was stable, the test article was injected i.v. at the chosen concentration. The effect of test article was assessed on its ability to increase force generated from the stimulation pattern applied. The effect was assessed in the ability to increase force per se (tetanic, 80 Hz, stimulation), and the ratio between individual twitch peaks (12 Hz stimulation). The effect was monitored for at least 1 hour after injection of test article. In addition, the time from injection of test article to maximal effect on force (both twitch and tetanic) was noted and the time for the effect to disappear (return to baseline), if possible. When appropriate the infusion of neuromuscular blocking agent was ceased, with the stimulation pattern continued, and the return of force to control levels was monitored. Animals were sacrificed by cervical dislocation while still fully sedated.

SMILES	EC50 [4]	Point increase (%) of initial force that was restored [5]	further results
CN(C)C(=O)Oc1cccc([N+](C)(C)C)c1 [neostigmine, reference compound]	–	–	nerve-stimulated force at different tubocurarine concentrations compared to control [1]: elevated nerve-stimulated force
C=CC[N+]1([C@H]2C[C@H]3[C@@H]4CC[C@H]5C[C@H](O)[C@@H](N6CCOCC6)C[C@]5(C)[C@H]4CC[C@]3(C)[C@H]2OC(C)=O)CCCC1 [rocuronium, reference compound]	–	–	nerve-stimulated force, % of force before rocuronium [2]: 51±5%
C[C@H](Oc1ccc(Br)cc1-c1ccno1)C(=O)O [Compound A-22, (2S)-2-[4-bromo-2-(1,2-oxazol-5-yl)phenoxy]propanoic acid]	7.5 µM	27%	Δ1/2 (mV) [3]: 9.3 mV
O=C(O)[C@H](CC1CC1)Oc1ccc(Cl)cc1-c1ccon1 [Compound A-41, (2S)-2-[4-chloro-2-(1,2-oxazol-3-yl)phenoxy]-3-cyclopropylpropanoic acid]	4.3 µM	25%	average increase in tetanic force ([6]; 40.0 mg/kg i.v.): 36.4%
CCOC[C@H](Oc1ccc(Br)cc1-c1ccon1)C(=O)O [Compound A-81, (2S)-2-[4-bromo-2-(1,2-oxazol-3-yl)phenoxy]-3-ethoxypropanoic acid]	8.1 ± 1.2 µM	45%	average increase in tetanic force ([6]; 26.5 mg/kg i.v.): 52.9%

Source: patent US20260007639A1, “COMPOUNDS FOR THE TREATMENT OF NEUROMUSCULAR DISORDERS” (NMD PHARMA A/S, priority 2017, published 2026)
